# Results as given in article PMC10666452, “Direct inhibition of dioxygenases TET1 by the rheumatoid arthritis drug auranofin selectively induces cancer cell death in T-ALL” (Journal of Hematology & Oncology, 2023).
# Biological target: T1, TET1 (TET1-CD) (Homo sapiens, UniProt Q8NFU7)
# T1 construct: TET1 protein
# T1 sequence (Q8NFU7 1418-2136 limits assumed): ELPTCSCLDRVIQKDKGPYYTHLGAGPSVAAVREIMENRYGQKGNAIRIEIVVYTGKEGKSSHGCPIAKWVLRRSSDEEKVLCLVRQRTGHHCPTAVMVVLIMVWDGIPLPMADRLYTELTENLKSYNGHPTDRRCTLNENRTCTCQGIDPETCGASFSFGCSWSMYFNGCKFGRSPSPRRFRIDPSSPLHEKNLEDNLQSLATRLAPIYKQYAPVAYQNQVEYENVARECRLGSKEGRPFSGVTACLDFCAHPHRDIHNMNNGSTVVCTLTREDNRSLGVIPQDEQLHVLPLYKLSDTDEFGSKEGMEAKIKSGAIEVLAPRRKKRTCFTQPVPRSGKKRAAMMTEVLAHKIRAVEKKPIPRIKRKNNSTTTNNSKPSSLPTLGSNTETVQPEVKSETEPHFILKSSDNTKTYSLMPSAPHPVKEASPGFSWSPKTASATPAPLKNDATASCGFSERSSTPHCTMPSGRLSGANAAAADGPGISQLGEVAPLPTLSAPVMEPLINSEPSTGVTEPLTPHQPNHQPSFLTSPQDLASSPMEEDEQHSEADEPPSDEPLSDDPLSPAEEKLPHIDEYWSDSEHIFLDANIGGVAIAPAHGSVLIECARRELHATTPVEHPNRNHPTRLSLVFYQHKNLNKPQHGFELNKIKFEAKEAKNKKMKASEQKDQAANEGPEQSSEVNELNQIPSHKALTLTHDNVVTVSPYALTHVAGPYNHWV
# Assay: SPR competition against auranofin
# Assay type: binding
# Conditions: competes with auranofin, 2-OG analogue
smiles,measurement,value
O=C(O)CNC(=O)C(=O)O [NOG],SPR competition against auranofin,both NOG and Fe (II) compete with auranofin for binding to TET1-CD
